Experimental findings from US8541670B2, “Compositions and methods for inhibiting tumor cell growth” (priority 2007, dated 2013) are described below.

One assay concerns the target AKT2 (Homo sapiens, UniProt P31751). The experiment in a line: In vitro kinase assay AKT2. To be noted: ten times higher concentration than 0.1 μM. It counts as biochemical. As to the method:
(§1) As a specific substrate, the phosphorylation level of GSK-3[…] at Ser-9 was also evaluated. […] The decrease was specific to the AKT phosphorylation site on GSK-3[…] at Ser-9, since a change in the phosphorylation level of GSK-3[…] at Tyr-216 or GSK-3[…] at Tyr-279 was not observed. Moreover, the in vivo reduction of the phosphorylation of AKT substrates was more obvious at the injection site, since a significant change in the phosphorylation of AKT substrates in the frontal cortex or cerebellum between the two hemispheres was not observed. […] To test the specificity/selectivity of ZaTa as the inhibitor of AKT1 versus the other major kinases, a series of in vitro kinase assays was performed at IC50 for AKT1 and at ten times higher concentrations. A panel of the following 32 kinases was first tested in vitro using the active form of each kinase and a specific substrate: AKT2, AKT3, PKA, PKC[…], PKC, PI3K[…], PI3K[…], PI3K, SGK, PAK2, PAK3, SAPK2/p38, Abl, CaMKII, CDK1/cyclinB, CDK5/p35, CK1, CK2, CSK, GSK3[…], GSK3[…], JNK1[…]1, MAPK1, p70S6K, PDGFR[…], PDGFR[…], PDK1, PKG1[…], TrkB, JAK2, JAK3, and Syk. […] However, at ten times higher concentration, ZaTa inhibited AKT2 (63%), PI3K[…] (72%), p70S6K (64%), SGK (73%), PAK3 (83%), JAK3 (79%), TrkB (84%), and Abl (42%). […]

The test system of assay [1] is panel of 32 kinases (AKT2, AKT3, PKA, PKC, PI3K, SGK, PAK2, PAK3, SAPK2/p38, Abl, CaMKII, CDK1/cyclinB, CDK5/p35, CK1, CK2, CSK, GSK3, JNK1, MAPK1, p70S6K …). Kind of assay: In vitro kinase selectivity panel of 32 kinases. Type of assay: biochemical. To be noted: at IC50 for AKT1 (0.1 μM). As to the method: as §1
The target in another assay is PAK3 (Homo sapiens, UniProt O75914). The experiment in a line: In vitro kinase assay PAK3. The conditions noted are these: ten times higher concentration than 0.1 μM. It counts as biochemical. The procedure:
as §1

The subject of a further assay is AKT. Kind of assay: Cell penetration and co-localization of fluorescently labeled ZaTa with AKT. It counts as cell-based. The conditions noted are these: immunofluorescence. The text has this:
Peptides can be very effective inhibitors since they efficiently bind to and inhibit enzymatic activity. However, intracellular delivery of peptides can limit their use. With the exception of a few peptides known as cell-penetrating peptides (CPPs), which have been recognized for their use in site-specific drug delivery, inhibitory peptides can have limited intracellular accumulation in in vivo enzymatic studies. […] Based on the primary structure of the ZaTa peptide (i.e., a peptide having a basic arm of several basic residues at the N-terminus and a polar arm composed of several residues with free hydroxyl group at the C-terminus) and in vivo inhibitory effect in the brain, it was determined whether ZaTa peptide was a CPP. The ZaTa peptide was labeled with a red fluorescent dye at its N-terminus given that its C-terminus was important for inhibitory activity. The efficiency of the labeling and the purity of the labeled peptide were assessed by mass spectrometry.
These different localization patterns of ZaTa within the cell were usually accompanied with redistribution of AKT to the site of ZaTa.
Cell cultures were analyzed by growing cells (1×10^4) on coverslips, fixation for 10 minutes in phosphate-buffered saline (PBS) plus 3.7% formaldehyde, and permeabilization for 2 minutes with cold acetone. […]

A further assay deals with TrkB (Homo sapiens, UniProt Q16620). Kind of assay: In vitro kinase assay TrkB. The conditions noted are these: ten times higher concentration than 0.1 μM. Type of assay: biochemical. As to the method:
as §1

A further assay deals with PI3K[…]. The experiment in a line: In vitro kinase assay PI3K[…]. It counts as biochemical. The conditions noted are these: ten times higher concentration than 0.1 μM. As to the method:
as §1

In another assay the test system is PKA and CDK5. Kind of assay: In vivo phosphorylation of DARPP-32 at Thr-34 (PKA site) and Thr-75 (CDK5 site). The arrangement: species or system mouse. The conditions noted are these: striatum. The procedure: As a striatal specific substrate for PKA and CDK5, the phosphorylation level of DARPP-32 was determined at Thr-34 (the PKA site) or at Thr-75 (the CDK5 site)(Huang, et al. (1999) supra).

For another assay, the system named is PI3K. The experiment in a line: Cell-based kinase assay, phosphorylation of intracellular substrate (Ser-241 PDK1). As to the method: As a specific substrate, the phosphorylation level of GSK-3[…] at Ser-9 was also evaluated. […] The decrease was specific to the AKT phosphorylation site on GSK-3[…] at Ser-9, since a change in the phosphorylation level of GSK-3[…] at Tyr-216 or GSK-3[…] at Tyr-279 was not observed. Moreover, the in vivo reduction of the phosphorylation of AKT substrates was more obvious at the injection site, since a significant change in the phosphorylation of AKT substrates in the frontal cortex or cerebellum between the two hemispheres was not observed. […] To test the specificity/selectivity of ZaTa as the inhibitor of AKT1 versus the other major kinases, a series of in vitro kinase assays was performed at IC50 for AKT1 and at ten times higher concentrations. […]
Phosphorylation sites for kinases analyzed herein included Ser-235/236 S6 (a substrate for p70S6K), Tyr-207 CRKL (a substrate for Abl; Zipfel, et al. (2004) supra), Ser-241 PDK1 (a substrate for PI3K), Tyr-1022/1023 JAK1 (a substrate for JAK3; Wang, et al. (2003) supra), Ser-421 Huntingtin (a substrate for SGK; Rangone, et al. (2004) supra), Tyr-783 PLC (a substrate for TrkB; Middlemas, et al. (1994) supra), and Ser-338 cRaf (a substrate for PAK3; King, et al. (1998) supra).

Where no end group is shown, it is not given here. red fluorescent dye = not defined here

Chain of PAK3 (O75914 whole entry, species assumed): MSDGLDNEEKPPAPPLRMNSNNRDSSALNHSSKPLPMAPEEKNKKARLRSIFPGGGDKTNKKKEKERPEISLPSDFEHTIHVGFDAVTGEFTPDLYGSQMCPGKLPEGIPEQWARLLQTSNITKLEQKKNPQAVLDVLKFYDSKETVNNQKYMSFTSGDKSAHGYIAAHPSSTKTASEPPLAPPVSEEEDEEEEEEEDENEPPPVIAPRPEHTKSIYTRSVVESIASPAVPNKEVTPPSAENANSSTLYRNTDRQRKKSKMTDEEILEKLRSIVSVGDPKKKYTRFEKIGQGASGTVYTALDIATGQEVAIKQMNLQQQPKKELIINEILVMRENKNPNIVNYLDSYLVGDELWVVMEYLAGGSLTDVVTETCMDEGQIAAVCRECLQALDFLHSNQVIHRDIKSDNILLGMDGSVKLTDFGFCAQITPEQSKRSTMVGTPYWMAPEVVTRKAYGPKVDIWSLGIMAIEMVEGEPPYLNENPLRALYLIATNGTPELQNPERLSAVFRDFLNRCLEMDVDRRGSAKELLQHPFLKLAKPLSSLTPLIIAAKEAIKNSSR
Chain of AKT2 (P31751 whole entry, species assumed): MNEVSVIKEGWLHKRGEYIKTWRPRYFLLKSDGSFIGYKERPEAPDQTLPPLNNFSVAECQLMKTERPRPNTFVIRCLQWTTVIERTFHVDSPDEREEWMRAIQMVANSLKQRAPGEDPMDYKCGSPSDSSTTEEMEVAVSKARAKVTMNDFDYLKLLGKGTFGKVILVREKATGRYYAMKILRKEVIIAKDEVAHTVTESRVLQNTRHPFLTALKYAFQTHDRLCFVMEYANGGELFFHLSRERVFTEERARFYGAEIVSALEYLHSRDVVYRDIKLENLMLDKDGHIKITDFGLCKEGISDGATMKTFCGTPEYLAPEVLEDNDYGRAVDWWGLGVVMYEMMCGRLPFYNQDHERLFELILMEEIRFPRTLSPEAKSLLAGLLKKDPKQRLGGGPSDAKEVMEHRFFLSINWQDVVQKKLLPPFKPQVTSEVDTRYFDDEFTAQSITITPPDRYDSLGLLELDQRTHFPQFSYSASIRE
Chain of TrkB (Q16620 32-822, species assumed): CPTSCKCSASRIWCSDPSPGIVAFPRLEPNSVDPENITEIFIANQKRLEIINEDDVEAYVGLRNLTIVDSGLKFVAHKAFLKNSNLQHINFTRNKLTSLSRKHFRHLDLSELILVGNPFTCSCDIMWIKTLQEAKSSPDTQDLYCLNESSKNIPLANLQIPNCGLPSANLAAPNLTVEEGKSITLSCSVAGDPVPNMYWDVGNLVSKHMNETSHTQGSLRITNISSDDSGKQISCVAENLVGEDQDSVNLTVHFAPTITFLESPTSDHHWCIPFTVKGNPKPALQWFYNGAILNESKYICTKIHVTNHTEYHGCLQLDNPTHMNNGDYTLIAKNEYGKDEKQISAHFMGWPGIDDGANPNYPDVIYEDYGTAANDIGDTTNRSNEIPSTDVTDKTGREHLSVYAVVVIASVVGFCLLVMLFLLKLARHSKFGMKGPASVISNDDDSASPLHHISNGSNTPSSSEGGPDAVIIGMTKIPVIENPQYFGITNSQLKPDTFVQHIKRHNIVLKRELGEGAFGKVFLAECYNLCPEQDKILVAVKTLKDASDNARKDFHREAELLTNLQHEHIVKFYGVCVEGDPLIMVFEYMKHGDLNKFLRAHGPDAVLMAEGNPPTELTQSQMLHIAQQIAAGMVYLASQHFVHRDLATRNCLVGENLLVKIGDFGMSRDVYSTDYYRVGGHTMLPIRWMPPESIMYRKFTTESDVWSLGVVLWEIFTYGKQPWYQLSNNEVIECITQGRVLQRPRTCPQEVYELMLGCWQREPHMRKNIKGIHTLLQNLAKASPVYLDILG

With AKRVKGRTWTLCGTPEY [ZaTa], the “inhibition of AKT2” value against AKT2 was determined as 63%. The “inhibition of panel kinases” value in assay [1] was “no significant inhibition”. Moreover, at PAK3, the “inhibition of PAK3” value stood at 83%. Moreover, in the assay with AKT, the “phosphorylation level of AKT substrates in cells entered by ZaTa” value was “decrease in the phosphorylation level of AKT substrates”. The “inhibition of TrkB” value against TrkB was found to be 84%. In addition, the “inhibition of PI3K[…]” value in the assay on PI3K[…] is given as 72%. Further, the “phosphorylation of DARPP-32 at Thr-34 or Thr-75” value in the assay on PKA and CDK5 was “did not cause any significant change”.

“labeled ZaTa: ZaTa peptide labeled with a red fluorescent dye at its N-terminus ({red fluorescent dye}-AKRVKGRTWTLCGTPEY; reading uncertain)”: in the assay on PI3K, the “inhibition of PI3K in cells” value is recorded as “did not cause inhibition”.
